Source: the supplement of paper PMC12370961

Experiments:
Assay in all cases: differential drug sensitivity score (dDSS) relative to sarcoma reference cohort mean DSS (DSS units (0-100 scale difference)); higher = more selective sensitivity than reference sarcomas
Conditions in all cases: exposure time: 72 h; concentration range: 10-10000 nM
ES-ZH016 direct = test system: ES-ZH016 direct (Ewing sarcoma cells right after isolation)
Experimental: (§1)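 Drug response profiling of patient-derived Ewing sarcoma and CIC::DUX4 sarcoma tumoroid models (or cells tested directly after isolation from the tumor, 'direct'). The DSS is the normalised AUC (0-100); dDSS is the sample DSS minus the mean DSS of a 34-sarcoma reference cohort profiled in the same lab.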

ES-ZH002 = test system: ES-ZH002 (patient-derived Ewing sarcoma tumoroid)
Experimental: as §1

ES-ZH007 = test system: ES-ZH007 (patient-derived Ewing sarcoma tumoroid)
Experimental: as §1

CDS-ZH002 direct = test system: CDS-ZH002 direct (CIC-DUX4 sarcoma cells right after isolation)
Experimental: as §1

CDS-ZH001-2 = test system: CDS-ZH001-2 (patient-derived CIC-DUX4 sarcoma tumoroid)
Experimental: as §1

ES-ZH016 = test system: ES-ZH016 (patient-derived Ewing sarcoma tumoroid)
Experimental: as §1

ES-ZH001 = test system: ES-ZH001 (patient-derived Ewing sarcoma tumoroid)
Experimental: as §1

ES-ZH008 = test system: ES-ZH008 (patient-derived Ewing sarcoma tumoroid)
Experimental: as §1

ES-ZH009 = test system: ES-ZH009 (patient-derived Ewing sarcoma tumoroid)
Experimental: as §1

CDS-ZH002 = test system: CDS-ZH002 (patient-derived CIC-DUX4 sarcoma tumoroid)
Experimental: as §1

ES-ZH004 = test system: ES-ZH004 (patient-derived Ewing sarcoma tumoroid)
Experimental: as §1

CDS-ZH001 = test system: CDS-ZH001 (patient-derived CIC-DUX4 sarcoma tumoroid)
Experimental: as §1

CDS-ZH003 = test system: CDS-ZH003 (patient-derived CIC-DUX4 sarcoma tumoroid)
Experimental: as §1

Row | SMILES | differential drug sensitivity score (ES-ZH016 direct) | differential drug sensitivity score (ES-ZH002) | differential drug sensitivity score (ES-ZH007) | differential drug sensitivity score (CDS-ZH002 direct) | differential drug sensitivity score (CDS-ZH001-2) | differential drug sensitivity score (ES-ZH016) | differential drug sensitivity score (ES-ZH001) | differential drug sensitivity score (ES-ZH008) | differential drug sensitivity score (ES-ZH009) | differential drug sensitivity score (CDS-ZH002) | differential drug sensitivity score (ES-ZH004) | differential drug sensitivity score (CDS-ZH001) | differential drug sensitivity score (CDS-ZH003)
1 | Nc1nc2[nH]cnc2c(=S)[nH]1 [Thioguanine] | 3.7 | 17.1 | 1.2 | 2.5 | 5.1 | -4.8 | 15.5 | 10.4 | 9.6 | 0.2 | 12.4 | 1 | -4.2
2 | O=C(O)CNC(=O)c1c(O)c2ccccc2n(Cc2ccccc2)c1=O [IOX2] | -1.5 | 5.1 | -0.7 | 1 | -1.5 | -1.5 | 3.2 | 3.7 | -1.5 | -1.3 | 0.7 | -1.5 | 3.7
3 | CC(C)(O)CNc1nc(Nc2ccnc(C(F)(F)F)c2)nc(-c2cccc(C(F)(F)F)n2)n1 [Enasidenib] | -1.3 | -1.3 | -1 | -1.3 | -1.3 | -1.3 | -1.3 | -1.3 | -1.3 | -1.3 | -0.7 | -1.3 | -1.3
4 | Cc1cc(Nc2ncc(Cl)c(Nc3ccccc3S(=O)(=O)C(C)C)n2)c(OC(C)C)cc1C1CCNCC1 [Ceritinib] | 3.7 | 11.7 | 3.8 | -0.1 | 7 | 3.4 | 2.9 | 4.9 | 2.1 | 0.4 | 3.5 | 4.9 | 0.3
5 | COc1cc(Nc2ncc3c(n2)-c2ccc(Cl)cc2C(c2c(F)cccc2OC)=NC3)ccc1C(=O)O [Alisertib] | 17.2 | 21.5 | 8.5 | -7.3 | 5.5 | 15.3 | 20 | 8.2 | 15.8 | -3.7 | -11.3 | -3.4 | -0.9
6 | CN1CCC(COc2cnc(-c3cccc(Cn4nc(-c5cccc(C#N)c5)ccc4=O)c3)nc2)CC1 [Tepotinib] | -4.5 | 0.6 | -0.6 | 2.3 | -2.5 | -4.3 | 4.4 | -4.7 | 9 | -5.4 | -4.7 | -1.4 | 3.5
7 | CCc1c(O)cc(O)c(C(=O)c2ccc(OCCN3CCOCC3)c(OC)c2)c1CC(=O)N(CCOC)CCOC [KW-2478] | 3.2 | 7.3 | 0.6 | -0.4 | 0.4 | 1.4 | 3.5 | 6.1 | 4.4 | -3.8 | 0 | -0.4 | -1.3
8 | CCc1cc2c(cc1N1CCC(N3CCOCC3)CC1)C(C)(C)c1[nH]c3cc(C#N)ccc3c1C2=O [Alectinib] | -1.3 | 4.6 | -1.3 | -0.8 | -1.3 | -1.3 | -0.5 | -0.7 | -1.3 | -1.3 | -1.3 | -1.2 | 2.4
9 | Cc1c(C(=O)Nc2ccc(N3C[C@@H](C)O[C@@H](C)C3)nc2)cccc1-c1ccc(OC(F)(F)F)cc1 [Sonidegib] | -1.4 | -1.1 | -1.4 | -1.4 | -1.4 | -1.4 | -1.1 | -1.4 | -1.4 | -1.4 | -1.4 | -1.4 | 2.3
10 | N#Cc1ccnc(N2C(=O)CC[C@H]2C(=O)N(c2cncc(F)c2)[C@H](C(=O)NC2CC(F)(F)C2)c2ccccc2Cl)c1 [Ivosidenib] | 18.2 | -2.1 | -2.1 | -2.1 | -2.1 | -2.1 | -2.1 | 7.8 | -2.1 | -2.1 | -2.1 | -2.1 | -2.1
11 | O=c1ncn2nc(Sc3ccc(F)cc3F)ccc2c1-c1c(Cl)cccc1Cl [Neflamapimod] | 11.9 | 5.8 | 0.5 | 1 | 5 | 2.9 | 3.5 | 7.4 | 5.9 | -1.2 | 0.5 | -2.7 | -5.6
12 | NC(=O)Nc1cc(-c2cccc(F)c2)sc1C(=O)N[C@H]1CCCNC1 [AZD7762] | 10.6 | 7.1 | 8.8 | -1 | 0 | 4.7 | 7.4 | 8.1 | 8.8 | -0.5 | -2.9 | 6.3 | -3.8
13 | Cn1cnc2c(F)c(Nc3ccc(Br)cc3Cl)c(C(=O)NOCCO)cc21 [Selumetinib] | -2 | -2 | -2 | -2 | -2 | -2 | -2 | 5.1 | -2 | -2 | -1.9 | -2 | 2.5
14 | CCn1c(-c2nonc2N)nc2cnc(Oc3cccc(NC(=O)c4ccc(OCCN5CCOCC5)cc4)c3)cc21 | -1.7 | 4.5 | -2.1 | -2.4 | 1.1 | 2 | 1.8 | -2.1 | 6.5 | -2.9 | -2.6 | -2.7 | -1.3
15 | COC(=O)C[C@](O)(CCCC(C)(C)O)C(=O)O[C@@H]1C(OC)=C[C@]23CCCN2CCc2cc4c(cc2[C@H]13)OCO4 [Homoharringtonine] | 2.7 | 9.7 | 10 | 10 | 10.7 | 3.1 | 3.5 | 13.3 | 6 | 6.3 | 1.9 | 10.1 | 1
16 | CC(C)C[C@H](NC(=O)[C@H](CCc1ccccc1)NC(=O)CN1CCOCC1)C(=O)N[C@@H](Cc1ccccc1)C(=O)N[C@@H](CC(C)C)C(=O)[C@@]1(C)CO1 [Carfilzomib] | 6.8 | 9.9 | 12.2 | 5.5 | 6 | 4.3 | 8.2 | 4 | 10.8 | 0.7 | 10.9 | 5.3 | 4.4
17 | FC(F)(F)c1ccc(CNc2ccc(Cc3c[nH]c4ncc(Cl)cc34)cn2)cn1 [Pexidartinib] | 3.5 | -1.3 | -1.5 | 5.7 | 0.5 | 0.7 | -1.5 | -0.7 | -0.8 | -1.5 | 0 | -1.5 | -1.3
18 | Cn1ncc(Cl)c1-c1cc(C(=O)N[C@H](CN)Cc2ccc(F)c(F)c2)oc1Cl [Uprosertib] | -3.2 | 10.7 | 1 | -6 | 3.3 | 1 | -2.4 | 11.2 | 5.6 | -3.2 | 7.2 | 3.3 | -2.5
19 | COc1nc(N)nc2c1ncn2[C@@H]1O[C@H](CO)[C@@H](O)[C@@H]1O [Nelarabine] | -2.5 | 8.4 | -1.6 | -2.5 | -2.5 | -2.5 | 3.2 | 5.2 | -2.5 | -2.5 | 1 | -2.5 | -2.5
20 | Nc1ncn([C@@H]2O[C@H](CO)[C@@H](O)[C@H]2O)c(=O)n1 [Azacitidine] | -1.2 | 4.4 | -1.2 | 0.2 | -0.6 | -1.2 | -1.2 | -1.2 | 0.6 | 0.2 | -1.2 | -0.4 | -1.2
21 | Cc1cn(-c2cc(NC(=O)c3ccc(C)c(Nc4nccc(-c5cccnc5)n4)c3)cc(C(F)(F)F)c2)cn1 [Nilotinib] | -0.7 | 4.1 | -0.3 | -0.7 | -0.7 | -0.7 | 0.5 | -0.6 | -0.4 | -0.7 | 1.6 | 0.6 | -0.7
22 | C=CC(=O)N1CCN(c2nc(=O)n(-c3c(C)ccnc3C(C)C)c3nc(-c4c(O)cccc4F)c(F)cc23)[C@@H](C)C1 [Sotorasib] | 6.3 | 10.6 | -3.1 | 1.9 | 0.9 | 2.8 | 4.7 | 4.1 | 5.5 | -0.1 | 5.9 | 2.7 | -4.3
23 | COc1cccc2c1C(=O)c1c(O)c3c(c(O)c1C2=O)C[C@@](O)(C(=O)CO)C[C@@H]3O[C@H]1C[C@H](N)[C@H](O)[C@H](C)O1 [Doxorubicin] | 11 | 20.9 | -10.2 | 3.1 | 10.6 | 12.8 | 6.8 | -0.7 | 15.7 | 4.7 | -3.3 | 3.1 | 5
24 | O=C1c2c(O)ccc(O)c2C(=O)c2c(NCCNCCO)ccc(NCCNCCO)c21 [Mitoxantrone] | 11.9 | 21.8 | -1.8 | 0.4 | 9.1 | 14.7 | 10.9 | 9.8 | 10 | 3.5 | 5.1 | 5.1 | -2.1
25 | C[C@@H]1COCCN1c1cc(-c2ccnn2C)c2ccnc(-c3ccn[nH]3)c2n1 [Elimusertib] | 12.4 | 10.8 | 10.1 | -5.1 | 11.3 | 6.4 | 7 | 11.6 | 10.9 | 0.9 | 9.6 | 7.3 | 7.8
26 | Cc1ccc(C(=O)Nc2ccc(CN3CCN(C)CC3)c(C(F)(F)F)c2)cc1C#Cc1cnc2cccnn12 [Ponatinib] | 7.8 | 10 | -2.6 | -3.1 | -3.9 | -3.6 | 5.6 | 3.2 | 0.2 | -3.6 | 0.5 | -6.2 | -0.9
27 | Cc1sc2c(c1C)C(c1ccc(Cl)cc1)=N[C@@H](CC(=O)Nc1ccc(O)cc1)c1nnc(C)n1-2 [Birabresib] | 11.1 | 0.3 | -4.1 | 1.5 | 1 | -7.9 | -5.6 | 5.9 | 11.9 | -11.1 | -6.7 | -1.1 | -0.8
28 | CO[C@@]12[C@H](COC(N)=O)C3=C(C(=O)C(C)=C(N)C3=O)N1C[C@@H]1N[C@@H]12 [Mitomycin] | 15.5 | 22.4 | 9.5 | -3.8 | 1.6 | 17.3 | 14.4 | 18.4 | 6.6 | -4.7 | 10.3 | -1.3 | 0.6
29 | N#CC[C@H](C1CCCC1)n1cc(-c2ncnc3[nH]ccc23)cn1 [Ruxolitinib] | 2.7 | -0.8 | -0.8 | -0.8 | -0.1 | 1.7 | -0.8 | -0.8 | 4.4 | -0.6 | -0.8 | 0.9 | 1.3
